Data from PubChem BioAssay (NCI).
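Exposure lasted 48 hours, with cells grown in 96-well plates and compounds tested at five concentrations. TGI denotes the concentration required for complete inhibition of growth.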

What was measured:
Assay in all cases: NCI tumour cell line growth inhibition, 48 h
[1] = test system: 786-0 renal
[2] = test system: CAKI-1 renal
[3] = test system: COLO 205 colon
[4] = test system: DLD-1 colon
[5] = test system: DMS 114 small cell lung
[6] = test system: EKVX NSCLC
[7] = test system: HCC-2998 colon
[8] = test system: HCT-116 colon
[9] = test system: HCT-15 colon
[10] = test system: HOP-18 NSCLC
[11] = test system: HOP-62 NSCLC
[12] = test system: HT29 colon
[13] = test system: IGROV1 ovarian
[14] = test system: K-562 leukemia
[15] = test system: KM12 colon
[16] = test system: M14 melanoma
[17] = test system: M19-MEL melanoma
[18] = test system: MALME-3M melanoma
[19] = test system: MOLT-4 leukemia
[20] = test system: NCI-H23 lung
[21] = test system: OVCAR-3 ovarian
[22] = test system: OVCAR-4 ovarian
[23] = test system: OVCAR-5 ovarian
[24] = test system: OVCAR-8 ovarian
[25] = test system: RPMI-8226 leukemia
[26] = test system: RXF 393 renal
[27] = test system: SF-295 CNS
[28] = test system: SF-539 CNS
[29] = test system: SK-MEL-2 melanoma
[30] = test system: SK-MEL-28 melanoma
[31] = test system: SK-MEL-5 melanoma
[32] = test system: SK-OV-3 ovarian
[33] = test system: SNB-19 CNS
[34] = test system: SNB-78 CNS
[35] = test system: SR leukemia
[36] = test system: TK-10 renal
[37] = test system: U251 CNS
[38] = test system: UACC-62 melanoma
[39] = test system: UO-31 renal
[40] = test system: XF 498 CNS
[41] = test system: A498 renal
[42] = test system: A549 NSCLC
[43] = test system: ACHN renal
[44] = test system: CCRF-CEM leukemia
[45] = test system: HL-60(TB) leukemia
[46] = test system: HOP-92 NSCLC
[47] = test system: KM20L2 colon
[48] = test system: LXFL 529 NSCLC
[49] = test system: NCI-H522 lung
[50] = test system: SF-268 CNS
[51] = test system: SN12C renal
[52] = test system: SNB-75 CNS
[53] = test system: SW-620 colon

Compound: COC(=O)C12C(=O)O[C@H](C)C1(O)C(C)C(=O)N2C (some centres not stated)
- TGI [1]: > 100 µM
- TGI [2]: > 100 µM
- TGI [3]: > 100 µM
- TGI [4]: > 100 µM
- TGI [5]: > 100 µM
- TGI [6]: > 100 µM
- TGI [7]: > 100 µM
- TGI [8]: > 100 µM
- TGI [9]: > 100 µM
- TGI [10]: > 100 µM
- TGI [11]: > 100 µM
- TGI [12]: > 100 µM
- TGI [13]: > 100 µM
- TGI [14]: > 100 µM
- TGI [15]: > 100 µM
- TGI [16]: > 100 µM
- TGI [17]: > 100 µM
- TGI [18]: > 100 µM
- TGI [19]: > 100 µM
- TGI [20]: > 100 µM
- TGI [21]: > 100 µM
- TGI [22]: > 100 µM
- TGI [23]: > 100 µM
- TGI [24]: > 100 µM
- TGI [25]: > 100 µM
- TGI [26]: > 100 µM
- TGI [27]: > 100 µM
- TGI [28]: > 100 µM
- TGI [29]: > 100 µM
- TGI [30]: > 100 µM
- TGI [31]: > 100 µM
- TGI [32]: > 100 µM
- TGI [33]: > 100 µM
- TGI [34]: > 100 µM
- TGI [35]: > 100 µM
- TGI [36]: > 100 µM
- TGI [37]: > 100 µM
- TGI [38]: > 100 µM
- TGI [39]: > 100 µM
- TGI [40]: 86.2 µM

Compound: CC(C)C1CCC/C=C/C=C/C=C/C=C/C(OC2OC(C)C(O)C(N)C2O)CC2OC(O)(CC(O)CC(O)C(O)CCC(=O)O1)CC(O)C2C(=O)O (configuration not stated)
- TGI [1]: > 52.5 µM
- TGI [41]: > 52.5 µM
- TGI [42]: > 52.5 µM
- TGI [43]: > 52.5 µM
- TGI [2]: > 52.5 µM
- TGI [44]: > 52.5 µM
- TGI [3]: > 52.5 µM
- TGI [5]: > 52.5 µM
- TGI [8]: > 52.5 µM
- TGI [9]: > 52.5 µM
- TGI [45]: > 52.5 µM
- TGI [10]: > 52.5 µM
- TGI [11]: > 52.5 µM
- TGI [46]: > 52.5 µM
- TGI [12]: > 52.5 µM
- TGI [13]: > 52.5 µM
- TGI [14]: > 52.5 µM
- TGI [47]: > 52.5 µM
- TGI [48]: > 52.5 µM
- TGI [16]: > 52.5 µM
- TGI [17]: > 52.5 µM
- TGI [18]: > 52.5 µM
- TGI [19]: > 52.5 µM
- TGI [49]: > 52.5 µM
- TGI [21]: > 52.5 µM
- TGI [24]: > 52.5 µM
- TGI [25]: > 52.5 µM
- TGI [50]: > 52.5 µM
- TGI [27]: > 52.5 µM
- TGI [28]: > 52.5 µM
- TGI [30]: > 52.5 µM
- TGI [31]: > 52.5 µM
- TGI [32]: > 52.5 µM
- TGI [51]: > 52.5 µM
- TGI [33]: > 52.5 µM
- TGI [52]: > 52.5 µM
- TGI [34]: > 52.5 µM
- TGI [35]: > 52.5 µM
- TGI [53]: > 52.5 µM
- TGI [37]: > 52.5 µM
- TGI [38]: > 52.5 µM
- TGI [39]: > 52.5 µM
